Assays:
Format in all cases: biochemical
CALBL = target: T1, CALBL (Moesziomyces antarcticus, UniProt P41365); test: Small molecule inhibitors, EA content of latex containing CALBL; design: EA content (column not headed): unit not given here; conditions: for Inhibition of the carboxylesterase enzyme (in words): CALBL 60 ppm, inhibitor 1.0%; for Effect of low inhibitor levels on enzyme activity (in words) / EA content (column not headed): CALBL 6 ppm; for Effect of low inhibitor levels on enzyme activity (in words): inhibitor as low as 0.01% or even 0.001% (solid on wet latex); for EA content (column not headed): latex
T1 construct: purchased Novozymes, Bagsvaerd, Denmark Novozym CALB L
T1 sequence (P41365 26-342): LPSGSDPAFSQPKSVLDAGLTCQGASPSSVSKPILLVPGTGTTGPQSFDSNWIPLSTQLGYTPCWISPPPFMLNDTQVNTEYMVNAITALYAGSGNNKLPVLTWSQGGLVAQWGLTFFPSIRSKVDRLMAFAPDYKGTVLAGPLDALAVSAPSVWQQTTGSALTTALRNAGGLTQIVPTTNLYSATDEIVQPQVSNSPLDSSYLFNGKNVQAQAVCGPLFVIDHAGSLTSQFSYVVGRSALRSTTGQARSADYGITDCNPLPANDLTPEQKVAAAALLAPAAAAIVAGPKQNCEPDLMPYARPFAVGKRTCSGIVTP
Method: (§1) In another embodiment, deactivation of the carboxylesterase enzyme may be achieved by the addition of a small molecule inhibitor, as shown for CALBL and N51032 in Tables 13 and 14, below. […] The small molecule inhibitor and CALBL were added simultaneously at the time t=0. In the following tables, the potential small molecule inhibitors are as follows: • PBA—phenylboronic acid • S-1-DS—Sodium 1-decane-sulfonate • NPB—Neopentylboronic acid • 2MPB—(2-methylpropyl)boronic acid • CBA—cyclohexylboronic acid
(§2) Again, optimization of the level of use for PBA and 2MPB in the latex is explored below, in Tables 15 and 16, respectively, by the same procedure.

N51032 [1] = test: Small molecule inhibitors, EA content of latex containing N51032; conditions: N51032 50 ppm; inhibitor 1%
Method: as §1
The small molecule inhibitors are added at 1% by weight of solids on weight of wet latex (at the same time as the esterase).
as §2

N51032 [2] = test: as above; conditions: N51032 5 ppm; for Effect of low inhibitor levels on enzyme activity (in words): inhibitor as low as 0.01% or even 0.001% (solid on wet latex); for EA content (column not headed): latex

Structure (SMILES) | Inhibition of the carboxylesterase enzyme (in words) (CALBL) | Effect of low inhibitor levels on enzyme activity (in words) (CALBL) | EA content (column not headed) (CALBL; inhibitor 0.001%, 0 hr) | EA content (column not headed) (CALBL; inhibitor 0.001%, 120 hr) | EA content (column not headed) (CALBL; inhibitor 0.001%, 168 hr) | EA content (column not headed) (CALBL; inhibitor 0.001%, 384 hr) | EA content (column not headed) (CALBL; inhibitor 0.001%, 480 hr) | EA content (column not headed) (CALBL; inhibitor 0.01%, 0 hr) | EA content (column not headed) (CALBL; inhibitor 0.01%, 120 hr) | EA content (column not headed) (CALBL; inhibitor 0.01%, 168 hr) | EA content (column not headed) (CALBL; inhibitor 0.01%, 384 hr) | EA content (column not headed) (CALBL; inhibitor 0.01%, 480 hr) | EA content (column not headed) (CALBL; inhibitor 0.1%, 0 hr) | EA content (column not headed) (CALBL; inhibitor 0.1%, 120 hr) | EA content (column not headed) (CALBL; inhibitor 0.1%, 168 hr) | EA content (column not headed) (CALBL; inhibitor 0.1%, 384 hr) | EA content (column not headed) (CALBL; inhibitor 0.1%, 480 hr) | Effect of low inhibitor levels on enzyme activity (in words) (N51032 [2]) | EA content (column not headed) (N51032 [2]; inhibitor 0.001%, 0 hr) [ppm] | EA content (column not headed) (N51032 [2]; inhibitor 0.001%, 120 hr) [ppm] | also measured
OB(O)C1CCCCC1 [CBA, cyclohexylboronic acid] | some ability to inhibit the CALBL enzyme |  |  |  |  |  |  |  |  |  |  |  |  |  |  |  |  |  |  |  | 
CC(C)(C)CB(O)O [NPB, Neopentylboronic acid] | completely ineffective as an inhibitor |  |  |  |  |  |  |  |  |  |  |  |  |  |  |  |  |  |  |  | 
OB(O)c1ccccc1 [PBA, phenylboronic acid] | effective in inhibiting the carboxylesterase enzyme | sufficient to shut off the enzyme activity | 48 | 30 | 25 | 11 | 9 | 44 | 32 | 26 | 15 | 15 | 39 | 35 | 35 | 29 | 29 | sufficient to shut off the enzyme activity | 46 | 36 | Inhibition of the carboxylesterase enzyme (in words) (N51032 [1]): effective in inhibiting the carboxylesterase enzyme; EA content (column not headed) (N51032 [2]; inhibitor 0.001%, 168 hr): 34 ppm; EA content (column not headed) (N51032 [2]; inhibitor 0.001%, 384 hr): 22 ppm; EA content (column not headed) (N51032 [2]; inhibitor 0.001%, 480 hr): 19 ppm; EA content (column not headed) (N51032 [2]; inhibitor 0.01%, 0 hr): 45 ppm; EA content (column not headed) (N51032 [2]; inhibitor 0.01%, 120 hr): 41 ppm; EA content (column not headed) (N51032 [2]; inhibitor 0.01%, 168 hr): 39 ppm; EA content (column not headed) (N51032 [2]; inhibitor 0.01%, 384 hr): 34 ppm; EA content (column not headed) (N51032 [2]; inhibitor 0.01%, 480 hr): 34 ppm; EA content (column not headed) (N51032 [2]; inhibitor 0.1%, 0 hr): 46 ppm; EA content (column not headed) (N51032 [2]; inhibitor 0.1%, 120 hr): 34 ppm; EA content (column not headed) (N51032 [2]; inhibitor 0.1%, 168 hr): 41 ppm; EA content (column not headed) (N51032 [2]; inhibitor 0.1%, 384 hr): 38 ppm; EA content (column not headed) (N51032 [2]; inhibitor 0.1%, 480 hr): 39 ppm
CC(C)CB(O)O [Paint 2MPB, (2-methylpropyl)boronic acid] | effective in inhibiting the carboxylesterase enzyme | sufficient to shut off the enzyme activity | 44 | 32 | 23 | 10 | 8 | 43 | 28 | 24 | 13 | 11 | 43 | 34 | 25 | 15 | 13 | sufficient to shut off the enzyme activity | 42 | 24 | EA content (column not headed) (N51032 [2]; inhibitor 0.001%, 168 hr): 22 ppm; EA content (column not headed) (N51032 [2]; inhibitor 0.001%, 384 hr): 8 ppm; EA content (column not headed) (N51032 [2]; inhibitor 0.001%, 480 hr): 6 ppm; EA content (column not headed) (N51032 [2]; inhibitor 0.01%, 0 hr): 37 ppm; EA content (column not headed) (N51032 [2]; inhibitor 0.01%, 120 hr): 25 ppm; EA content (column not headed) (N51032 [2]; inhibitor 0.01%, 168 hr): 19 ppm; EA content (column not headed) (N51032 [2]; inhibitor 0.01%, 384 hr): 6 ppm; EA content (column not headed) (N51032 [2]; inhibitor 0.01%, 480 hr): 5 ppm; EA content (column not headed) (N51032 [2]; inhibitor 0.1%, 0 hr): 43 ppm; EA content (column not headed) (N51032 [2]; inhibitor 0.1%, 120 hr): 34 ppm; EA content (column not headed) (N51032 [2]; inhibitor 0.1%, 168 hr): 27 ppm; EA content (column not headed) (N51032 [2]; inhibitor 0.1%, 384 hr): 22 ppm; EA content (column not headed) (N51032 [2]; inhibitor 0.1%, 480 hr): 20 ppm
CCCCCCCCCCS(=O)(=O)[O-].[Na+] [Paint S-1-DS, Sodium 1-decane-sulfonate] | some ability to inhibit the CALBL enzyme |  |  |  |  |  |  |  |  |  |  |  |  |  |  |  |  |  |  |  | 

Source: US8546482B2, “Low odor compositions and low odor coating compositions” (Rohm and Haas Company, priority 2009, dated 2013)
